BigSolDB 2.1

O=C(O)c1ccc([N+](=O)[O-])cc1
in 1,4-dioxane
Conditions | solubility (mole fraction)
296.95 K | 0.036
303.25 K | 0.048
306.25 K | 0.053
310.85 K | 0.062
314.65 K | 0.07
319.35 K | 0.08

NC(=O)N1c2ccccc2C=Cc2ccccc21
Conditions | solubility (mole fraction)
in 1,4-dioxane, 310.35 K | 0.022
in 1,4-dioxane, 319.95 K | 0.032
in 1,4-dioxane, 323.55 K | 0.036
in 1,4-dioxane, 327.95 K | 0.043
in 1,4-dioxane, 329.75 K | 0.047
in 1,4-dioxane, 332.45 K | 0.052
in 1,4-dioxane, 332.95 K | 0.054
in cyclopentyl methyl ether, 308.15 K | 0.002
in cyclopentyl methyl ether, 315.15 K | 0.002
in cyclopentyl methyl ether, 323.75 K | 0.003
in cyclopentyl methyl ether, 331.45 K | 0.004
in cyclopentyl methyl ether, 332.45 K | 0.004
in toluene, 301.85 K | 0.001
in toluene, 313.95 K | 0.002
in toluene, 319.65 K | 0.003
in toluene, 325.35 K | 0.004
in toluene, 328.55 K | 0.004
in toluene, 332.15 K | 0.005
in toluene, 335.35 K | 0.006

O=C(O)c1cccc(O)c1
in 1,4-dioxane
Conditions | solubility (mole fraction)
305.35 K | 0.188
308.85 K | 0.194
310.85 K | 0.197
312.95 K | 0.204
313.05 K | 0.203
316.75 K | 0.211
318.75 K | 0.214
321.45 K | 0.219
325.35 K | 0.227

NC(=O)c1ccncc1
in 1,4-dioxane
Conditions | solubility (mole fraction)
298.55 K | 0.014
301.45 K | 0.015
303.15 K | 0.016
305.05 K | 0.017
306.45 K | 0.018
308.25 K | 0.019
309.15 K | 0.02
309.35 K | 0.02
312.15 K | 0.023
314.05 K | 0.024
315.35 K | 0.026
319.45 K | 0.028
325.55 K | 0.036

O=C(Oc1ccccc1C(=O)O)c1ccccc1O
Conditions | solubility (mole fraction)
in 1,4-dioxane, 324.45 K | 0.263
in 1,4-dioxane, 326.55 K | 0.268
in 1,4-dioxane, 330.35 K | 0.278
in 1,4-dioxane, 332.55 K | 0.284
in 1,4-dioxane, 334.95 K | 0.291
in 1,4-dioxane, 337.35 K | 0.298
in cyclopentyl methyl ether, 319.75 K | 0.148
in cyclopentyl methyl ether, 323.25 K | 0.156
in cyclopentyl methyl ether, 323.95 K | 0.158
in cyclopentyl methyl ether, 325.65 K | 0.16
in cyclopentyl methyl ether, 327.75 K | 0.166
in cyclopentyl methyl ether, 329.95 K | 0.17
in cyclopentyl methyl ether, 333.95 K | 0.176
in toluene, 327.75 K | 0.016
in toluene, 329.25 K | 0.017
in toluene, 333.45 K | 0.019
in toluene, 335.25 K | 0.021
in toluene, 335.95 K | 0.022

c1ccc2nc3ccccc3nc2c1
Conditions | solubility (mole fraction)
in 1,4-dioxane, 302.55 K | 0.031
in 1,4-dioxane, 305.55 K | 0.033
in 1,4-dioxane, 306.05 K | 0.034
in 1,4-dioxane, 308.85 K | 0.038
in 1,4-dioxane, 312.45 K | 0.04
in 1,4-dioxane, 313.55 K | 0.043
in 1,4-dioxane, 318.75 K | 0.049
in cyclopentyl methyl ether, 301.15 K | 0.022
in cyclopentyl methyl ether, 305.75 K | 0.026
in cyclopentyl methyl ether, 310.05 K | 0.029
in cyclopentyl methyl ether, 314.05 K | 0.033
in cyclopentyl methyl ether, 318.25 K | 0.039
in cyclopentyl methyl ether, 326.85 K | 0.047
in toluene, 282.95 K | 0.015
in toluene, 289.85 K | 0.02
in toluene, 294.25 K | 0.022
in toluene, 297.95 K | 0.025
in toluene, 301.35 K | 0.027
in toluene, 312.55 K | 0.039
in toluene, 318.25 K | 0.046
in toluene, 322.35 K | 0.053
in toluene, 328.75 K | 0.062

Nc1ccc(C(=O)O)cc1
in 1,4-dioxane
Conditions | solubility (mole fraction)
298.25 K | 0.068
301.25 K | 0.073
304.65 K | 0.08
311.55 K | 0.094
317.75 K | 0.108
320.65 K | 0.116
324.85 K | 0.127
326.35 K | 0.131

NC(=O)c1cccnc1
in 1,4-dioxane
Conditions | solubility (mole fraction)
307.25 K | 0.025
309.95 K | 0.027
311.55 K | 0.029
313.35 K | 0.031
315.45 K | 0.033

CC(=O)Nc1ccc(O)cc1
in 1,4-dioxane
Conditions | solubility (mole fraction)
334.55 K | 0.037
335.35 K | 0.039
336.65 K | 0.042
336.95 K | 0.042
337.25 K | 0.043
337.85 K | 0.045

Nc1ccccc1C(=O)O
Conditions | solubility (mole fraction)
in 1,4-dioxane, 295.65 K | 0.251
in 1,4-dioxane, 304.55 K | 0.275
in 1,4-dioxane, 308.35 K | 0.287
in 1,4-dioxane, 320.85 K | 0.334
in 1,4-dioxane, 324.85 K | 0.338
in cyclopentyl methyl ether, 297.85 K | 0.137
in cyclopentyl methyl ether, 308.45 K | 0.155
in cyclopentyl methyl ether, 315.55 K | 0.171
in cyclopentyl methyl ether, 325.25 K | 0.194
in cyclopentyl methyl ether, 334.25 K | 0.223
in toluene, 295.55 K | 0.007
in toluene, 306.95 K | 0.012
in toluene, 308.85 K | 0.013
in toluene, 312.65 K | 0.015
in toluene, 316.75 K | 0.018
in toluene, 322.25 K | 0.024
in toluene, 325.95 K | 0.026
in toluene, 326.05 K | 0.026

O=C(O)c1ccccc1O
Conditions | solubility (mole fraction)
in 1,4-dioxane, 316.85 K | 0.323
in 1,4-dioxane, 321.55 K | 0.337
in 1,4-dioxane, 325.55 K | 0.35
in 1,4-dioxane, 330.85 K | 0.365
in cyclopentyl methyl ether, 316.75 K | 0.252
in cyclopentyl methyl ether, 322.85 K | 0.264
in cyclopentyl methyl ether, 330.55 K | 0.28
in cyclopentyl methyl ether, 333.05 K | 0.289
in cyclopentyl methyl ether, 337.25 K | 0.299
in toluene, 305.65 K | 0.007
in toluene, 314.15 K | 0.011
in toluene, 323.45 K | 0.017
in toluene, 326.85 K | 0.019
in toluene, 329.05 K | 0.021
in toluene, 332.25 K | 0.025
in toluene, 333.35 K | 0.027

O=C(O)c1ccc(O)cc1
in 1,4-dioxane
Conditions | solubility (mole fraction)
299.65 K | 0.08
304.15 K | 0.088
311.15 K | 0.102
315.75 K | 0.111
319.95 K | 0.119
324.55 K | 0.131

CC(=O)Oc1ccccc1C(=O)O
Conditions | solubility (mole fraction)
in 1,4-dioxane, 309.35 K | 0.164
in 1,4-dioxane, 312.05 K | 0.171
in 1,4-dioxane, 315.55 K | 0.183
in 1,4-dioxane, 317.65 K | 0.191
in 1,4-dioxane, 325.75 K | 0.218
in 1,4-dioxane, 330.05 K | 0.236
in 1,4-dioxane, 331.45 K | 0.246
in 1,4-dioxane, 332.55 K | 0.258
in cyclopentyl methyl ether, 313.05 K | 0.055
in cyclopentyl methyl ether, 314.25 K | 0.057
in cyclopentyl methyl ether, 316.35 K | 0.059
in cyclopentyl methyl ether, 319.05 K | 0.064
in cyclopentyl methyl ether, 320.55 K | 0.068
in cyclopentyl methyl ether, 322.85 K | 0.074
in cyclopentyl methyl ether, 325.75 K | 0.079
in toluene, 321.25 K | 0.008
in toluene, 326.65 K | 0.01
in toluene, 327.15 K | 0.011
in toluene, 327.85 K | 0.011
in toluene, 330.15 K | 0.014
